Columns and labels:
Experiment in all cases: Post-emergence efficacy, glasshouse spray test
Type in all cases: in vivo
[1] = tested on: Amaranthus palmeri (AMAPA); settings: Amaranthus palmeri, post-emergence, 312 h, evaluated after 13 days, read-out: Control of weed species AMAPA after post-emergence application (100=total damage to plant; 0=no damage to plant); for pest or weed control at 1000 g/ha: application rate 1000 g/Ha; for pest or weed control at 500 g/ha: application rate 500 g/Ha
Summary of the method: (§1)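 Visual damage score 13 days after spraying, 0 (no damage) to 100 (plant killed). Pot-grown plants were treated at 14 days post-sowing with aqueous spray of compound formulated in acetone/IF50, diluted with 0.25% or 1% Empicol ESC70 plus 1% ammonium sulphate; glasshouse kept at 24/16 °C, 14 h light, 65% RH.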

Setaria faberi (SETFA) = settings: Setaria faberi, post-emergence, 312 h, evaluated after 13 days, read-out: Control of weed species SETFA after post-emergence application (100=total damage to plant; 0=no damage to plant); for pest or weed control at 1000 g/ha: application rate 1000 g/Ha; for pest or weed control at 500 g/ha: application rate 500 g/Ha
Summary of the method: as §1

[2] = tested on: Digitaria sanguinalis (DIGSA); settings: Digitaria sanguinalis, post-emergence, 312 h, evaluated after 13 days, read-out: Control of weed species DIGSA after post-emergence application (100=total damage to plant; 0=no damage to plant); for pest or weed control at 1000 g/ha: application rate 1000 g/Ha; for pest or weed control at 500 g/ha: application rate 500 g/Ha
Summary of the method: as §1

Lolium perenne (LOLPE) = settings: Lolium perenne, post-emergence, 312 h, evaluated after 13 days, read-out: Control of weed species LOLPE after post-emergence application (100=total damage to plant; 0=no damage to plant); for pest or weed control at 1000 g/ha: application rate 1000 g/Ha; for pest or weed control at 500 g/ha: application rate 500 g/Ha
Summary of the method: as §1

[3] = tested on: Echinochloa crus-galli (ECHCG); settings: Echinochloa crus-galli, post-emergence, 312 h, evaluated after 13 days, read-out: Control of weed species ECHCG after post-emergence application (100=total damage to plant; 0=no damage to plant); for pest or weed control at 1000 g/ha: application rate 1000 g/Ha; for pest or weed control at 500 g/ha: application rate 500 g/Ha
Summary of the method: as §1

[4] = tested on: Chenopodium album (CHEAL); settings: Chenopodium album, post-emergence, 312 h, evaluated after 13 days, read-out: Control of weed species CHEAL after post-emergence application (100=total damage to plant; 0=no damage to plant); for pest or weed control at 1000 g/ha: application rate 1000 g/Ha; for pest or weed control at 500 g/ha: application rate 500 g/Ha
Summary of the method: as §1

Eleusine indica (ELEIN) = settings: Eleusine indica, post-emergence, 312 h, evaluated after 13 days, read-out: Control of weed species ELEIN after post-emergence application (100=total damage to plant; 0=no damage to plant); for pest or weed control at 1000 g/ha: application rate 1000 g/Ha; for pest or weed control at 500 g/ha: application rate 500 g/Ha
Summary of the method: as §1

[5] = tested on: Ipomoea hederacea (IPOHE); settings: Ipomoea hederacea, post-emergence, 312 h, evaluated after 13 days, read-out: Control of weed species IPOHE after post-emergence application (100=total damage to plant; 0=no damage to plant); for pest or weed control at 1000 g/ha: application rate 1000 g/Ha; for pest or weed control at 500 g/ha: application rate 500 g/Ha
Summary of the method: as §1

[6] = tested on: Euphorbia heterophylla (EPHHL); settings: Euphorbia heterophylla, post-emergence, 312 h, evaluated after 13 days, read-out: Control of weed species EPHHL after post-emergence application (100=total damage to plant; 0=no damage to plant); for pest or weed control at 1000 g/ha: application rate 1000 g/Ha; for pest or weed control at 500 g/ha: application rate 500 g/Ha
Summary of the method: as §1

| SMILES | pest or weed control at 1000 g/ha [1] [%] | pest or weed control at 1000 g/ha (Setaria faberi (SETFA)) [%] | pest or weed control at 1000 g/ha [2] [%] | pest or weed control at 1000 g/ha (Lolium perenne (LOLPE)) [%] | pest or weed control at 1000 g/ha [3] [%] | pest or weed control at 1000 g/ha [4] [%] | pest or weed control at 1000 g/ha (Eleusine indica (ELEIN)) [%] | pest or weed control at 1000 g/ha [5] [%] | pest or weed control at 1000 g/ha [6] [%] | pest or weed control at 500 g/ha [1] [%] | pest or weed control at 500 g/ha (Setaria faberi (SETFA)) [%] | pest or weed control at 500 g/ha [2] [%] | pest or weed control at 500 g/ha (Lolium perenne (LOLPE)) [%] | pest or weed control at 500 g/ha [3] [%] | pest or weed control at 500 g/ha [4] [%] | pest or weed control at 500 g/ha (Eleusine indica (ELEIN)) [%] | pest or weed control at 500 g/ha [5] [%] | pest or weed control at 500 g/ha [6] [%] |
| --- | --- | --- | --- | --- | --- | --- | --- | --- | --- | --- | --- | --- | --- | --- | --- | --- | --- | --- |
| O=S(=O)([N-]CC[n+]1ccc2ccccc2n1)C(F)(F)F [Compound A19, 2-cinnolin-2-ium-2-ylethyl(trifluoromethylsulfonyl)azanide] | 10 | 10 | 10 | 0 | 10 | 10 | 0 | 30 | 20 |  |  |  |  |  |  |  |  |  |
| Cc1cc(C)c2n[n+](CCO)cc(C)c2c1 [Compound A117] | 30 | 30 | 20 | 10 | 20 | 20 | 60 | 20 | 20 |  |  |  |  |  |  |  |  |  |
| Cc1cc2ccccc2n[n+]1CCCS(=O)(=O)[O-] [Compound A76] | 60 | 60 | 60 | 30 | 60 | 60 | 60 | 40 | 50 |  |  |  |  |  |  |  |  |  |
| O=P(O)(O)C[n+]1ccc2ccccc2n1 [Compound A73, cinnolin-2-ium-2-ylmethyl(hydroxy)phosphinate chloride] | 10 | 0 | 10 | 10 | 10 | 0 | 10 | 30 | 10 |  |  |  |  |  |  |  |  |  |
| O=S(=O)([O-])CC[n+]1ccc2ccc(C(F)(F)F)cc2n1 [Compound A80] | 0 | 30 | 20 | 10 | 20 | 20 | 30 | 0 | 20 |  |  |  |  |  |  |  |  |  |
| CNC(=O)c1c[n+](CCC(=O)O)nc2ccccc12 [Compound A14] |  |  |  |  |  |  |  |  |  | 100 | 80 | 80 | 30 | 70 | 90 | 100 | 50 | 60 |
| COC(=O)c1cccc2cc[n+](CCS(=O)(=O)[O-])nc12 [Compound A109, 2-(8-methoxycarbonylcinnolin-2-ium-2-yl)ethanesulfonate] |  |  |  |  |  |  |  |  |  | 40 | 10 | 10 | 10 | 30 | 20 | 10 | 10 | 30 |
| O=S(=O)([O-])CC[n+]1ccc2c(Cl)cccc2n1 [Compound A96] | 70 | 30 | 60 | 40 | 40 | 100 | 60 | 20 | 100 |  |  |  |  |  |  |  |  |  |
| O=S(=O)(O)CC[n+]1cc(C2CC2)c2ccccc2n1 [Compound A79] | 60 | 30 | 20 | 10 | 20 | 30 | 10 | 40 | 40 |  |  |  |  |  |  |  |  |  |
| COC(=O)C[n+]1ccc2cc(OC)ccc2n1 [Compound A60] | 0 | 10 | 30 | 10 | 20 | 0 | 40 | 30 | 10 |  |  |  |  |  |  |  |  |  |
| O=S(=O)([O-])OCC[n+]1ccc2ccccc2n1 [Compound A26] | 100 | 60 | 70 | 60 | 30 | 70 | 70 | 70 | 90 |  |  |  |  |  |  |  |  |  |
| CC(CC(=O)O)[n+]1ccc2ccccc2n1 (stereo not drawn) [Compound A115, 3-cinnolin-2-ium-2-ylbutanoic Acid 2,2,2-trifluoroacetate] |  |  |  |  |  |  |  |  |  | 100 | 30 | 60 | 20 | 20 | 40 | 60 | 20 | 20 |
| O=C(O)c1ccc(C[n+]2ccc3ccccc3n2)cc1 [Compound A89] | 20 | 0 | 0 | 0 | 0 | 0 | 0 | 20 | 40 |  |  |  |  |  |  |  |  |  |
| O=S(=O)(O)OCC[n+]1nc2ccccc2cc1Cl [Compound A56] | 0 | 20 | 20 | 0 | 10 | 0 | 30 | 0 | 50 |  |  |  |  |  |  |  |  |  |
| COP(=O)([O-])CCC[n+]1ccc2ccccc2n1 [Compound A72, 3-cinnolin-2-ium-2-ylpropyl(methoxy)phosphinate] | 70 | 60 | 50 | 50 | 50 | 70 | 70 | 100 | 50 |  |  |  |  |  |  |  |  |  |

Reference: US20220046923A1, “HERBICIDAL CINNOLINIUM COMPOUNDS” (SYNGENTA CROP PROTECTION AG, priority 2018, published 2022)
